Test results as given in US10501473B2, “Fused heterocyclic ring compounds and method of treating retinal disease using same” (THE INDUSTRY & ACADEMIC COOPERATION IN CHUNGNAM NATIONAL …, priority 2014, dated 2019).

Tests used:
[1] = target: RIPK1 (receptor-interacting serine/threonine-protein kinase 1) (Homo sapiens (Human), UniProt Q13546); assay: RIPK1 inhibitory activity, autophosphorylation of immuno-precipitated RIPK1 with [32P]γ-ATP; assay type: biochemical; settings: for activity at 100 µM: compound 100 μM, remaining RIPK1 phosphorylation; for inhibition at 100 µM: Table 2, 100 μM
Sequence of RIPK1 (receptor-interacting serine/threonine-protein kinase 1) (Q13546 whole entry, species assumed): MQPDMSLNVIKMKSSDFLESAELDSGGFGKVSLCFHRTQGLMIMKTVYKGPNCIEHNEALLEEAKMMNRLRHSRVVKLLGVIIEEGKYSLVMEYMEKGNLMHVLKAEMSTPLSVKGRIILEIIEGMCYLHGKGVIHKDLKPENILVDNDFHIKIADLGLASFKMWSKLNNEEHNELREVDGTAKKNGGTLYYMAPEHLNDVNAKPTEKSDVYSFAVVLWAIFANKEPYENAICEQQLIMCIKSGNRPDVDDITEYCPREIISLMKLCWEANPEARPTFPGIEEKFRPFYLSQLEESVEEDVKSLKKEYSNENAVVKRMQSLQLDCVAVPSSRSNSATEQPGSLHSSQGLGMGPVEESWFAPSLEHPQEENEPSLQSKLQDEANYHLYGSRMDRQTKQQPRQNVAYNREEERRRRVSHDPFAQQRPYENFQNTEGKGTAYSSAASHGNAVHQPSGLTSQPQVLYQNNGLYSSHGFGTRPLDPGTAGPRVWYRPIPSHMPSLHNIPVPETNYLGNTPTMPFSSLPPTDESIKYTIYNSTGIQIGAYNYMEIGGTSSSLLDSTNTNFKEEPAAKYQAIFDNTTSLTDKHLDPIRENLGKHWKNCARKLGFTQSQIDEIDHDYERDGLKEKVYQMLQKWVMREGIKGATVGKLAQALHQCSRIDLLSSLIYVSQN
Description: The following experiment was performed to evaluate RIPK1 (receptor-interacting serine/threonine-protein kinase 1) inhibitory activity of the compounds of examples of the invention.
RIPK1 enzyme immuno-precipitated in HEK293 (Human Embryonic Kidney 293) cell lysate was used as kinase. The experiment was performed according to the method described in Cell. 12; 137(6):1112-23(2009). RIPK1 protein was over-expressed in HEK293 cell line, to which lysis buffer (50 mM Tris-Cl [pH 8.0], 150 mM NaCl, 1 mM EDTA, 1% NP-40, 0.4 mM phenylmethylsulfonyl fluoride (PMSF)) was added for cell lysis. Centrifugation was performed at 13,000 rpm for 10 minutes to separate the supernatant. RIPK1 monoclonal antibody (610459, BD Bioscience) and A/G agarose beads (sc-2003, Santa Cruz Biotechnology) were added thereto, followed by immuno-precipitation in a 4° C. rotator for 12 hours.
The immune complex was washed with lysis buffer twice and then washed with kinase assay buffer (20 mM HEPES [pH7.6], 2 mM DTT, 1 mM NaF, 1 mM Na3Vo4, 20 mM β-glycerophosphate, 20 mM PNPP, 20 mM MgCl2, 20 mM MnCl2, 1 mM Benzamidie, and 1 mM EDTA) lastly. Kinase assay buffer and the compound were added to the RIPK1 immuno-precipitate, followed by reaction in a 24° C. constant-temperature water bath for 15 minutes. Additional reaction was induced for 30 minutes at 30° C. after 100 μM of ATP and 10 μCi[^32P] γ-ATP were added thereto. The reaction mixture was washed with kinase assay buffer once, to which protein loading buffer was added, followed by heating at 100° C. for 3 minutes. The reaction mixture was then loaded on 8% SDS-PAGE gel. Radioactive image of the phosphorylated RIPK1 was detected with FLA-7000 (GE healthcare). The image Quant TL program was used for the quantification.

[2] = tested on: RGC-5 (rat ganglion cell); assay: Retinal nerve protection under oxygen-glucose deprivation (OGD), LDH assay; assay type: cell-based; settings: RGC-5, OGD 15 hours, compound 20 μM, DMSO control = 100%
Description: The following experiment was performed to evaluate the protective effect of the compounds of examples of the invention on the retinal nerve under oxygen-glucose deprivation condition.
The retinal ganglion cell line RGC-5 (rat ganglion cell) was cultured in DMEM (Dulbecco's modified Eagle's medium) supplemented with 10% FBS (fetal bovine serum) and 1% penicillin/streptomycin. The cells were distributed in a 96-well plate at the density of 8×10^3 cells/well, followed by culture in a 37° C., CO2 incubator for 12 hours. The cells were washed with PBS once and the medium was replaced with glucose free DMEM. The cells were treated with either DMSO (0.1%) alone (control) or with the compounds of examples (20 μM) shown in Table 3, followed by culture in an anaerobic incubator (10% H2, 5% CO2, 85% N2, 37° C., chamber (ThermoForma, USA)) for 15 hours to induce cell death.
The level of cell death was measured by LDH (lactate dehydrogenase, Roche) assay. The LDH assay is a method for measuring the activity of LDH released from the damaged cells into the culture medium. NAD^+ was reduced to NADH and H^+ by LDH, and the bond of tetrazolium salt INT ring was cleaved by diaphorase to form formazan. Absorbance of the formazan was measured at 490 nm by using Victor 3 (PerkinElmer). The absorbance reflects the amount of dead cells.
The level of the control LDH under oxygen-glucose deprivation condition was regarded as 100%, and the level of LDH in the cell group cultured in normal medium (10% FBS, DMEM) for the same time was regarded as 0%. Based on that, the levels of LDH of the cell groups treated with the compounds of the invention under oxygen-glucose deprivation condition were converted into the relative ratio of cell death. The compounds of examples of the invention were treated to wells, each compound for three wells, and then each experiment was performed in triplicate.

[3] = tested on: RGC-5 (rat ganglion cell-5); assay: Retinal neuron protection under necroptosis inducing (TCZ; TNFα+cycloheximide+zVAD) condition, LDH assay; assay type: cell-based; settings: RGC-5, TCZ 15 hours, compound 20 μM, DMSO control = 100%
Description: The following experiment was performed to evaluate the retinal neuron protection effect of the compounds of the invention under necroptosis inducing condition.
The retinal ganglion cell line RGC-5 (rat ganglion cell-5) was cultured in DMEM (Dulbecco's modified Eagle's medium) supplemented with 10% FBS (fetal bovine serum) and 1% penicillin/streptomycin. The cells were distributed in a 96-well plate at the density of 8×10^3 cells/well, followed by culture in a 37° C., CO2 incubator for 12 hours. The medium supplemented with TNFα (10 ng/ml), cycloheximide (10 μg/ml), and zVAD (10 μM) (TCZ) was treated with DMSO (0.1%) alone (control) or with the compounds of the invention (20 μM), followed by additional culture in a 37° C., CO2 incubator for 15 hours to induce cell death.
The level of cell death was measured by LDH (lactate dehydrogenase, Roche) assay. The level of the control LDH under TCZ condition was regarded as 100%, and the level of LDH in the cell group cultured in normal medium (10% FBS, DMEM) for the same time was used for the measurement of the relative rate of cell death. The compounds of examples of the invention were treated to wells, each compound for three wells, and then each experiment was performed in triplicate.

Row | Compound | activity at 100 µM [1] | inhibition at 100 µM [1] | Death of retinal nerve cell (%) [2] | Death of retinal nerve cell (%) [3]
1 | O=C(c1cc2cc(Cl)ccc2[nH]1)N1CCOCC1 [Example 12, (5-chloro-1H-indole-2-yl)(morpholino)methanone] | 60% | – | 35.7 ± 0.1% | 50.5 ± 7.4%
2 | Cl.O=C(c1cc2c(-c3ccc(F)cc3)cccc2s1)N1CCNCC1 [Example 38, (4-(4-fluorophenyl)benzo[b]thiophene-2-yl)(piperazine-1-yl)methanone hydrochloride] | 62 ± 12% | – | 59.9 ± 0.2% | 72.4 ± 7.5%
3 | COc1ccc2cc(C(=O)N3CCOCC3)sc2c1 [Example 19, (6-methoxybenzo[b]thiophene-2-yl)(morpholino)methanone] | 81 ± 26.9% | – | 70.9 ± 9.7% | 71.6 ± 9.1%
4 | O=C(c1cc2c(-c3ccc(F)cc3)cnc(Cl)c2s1)N1CCOCC1 [Example 5, (7-chloro-4-(4-fluorophenyl)thieno[2,3-c]pyridine-2-yl)(morpholino)methanone] | 85.1 ± 24.7% | – | 62.1 ± 3.7% | 57.6 ± 19.2%
5 | Cc1ccc2cc(C(=O)N3CCOCC3)sc2c1C [Example 18, (6,7-dimethylbenzo[b]thiophene-2-yl)(morpholino)methanone] | 76.5 ± 12% | – | 37.0 ± 1.7% | 74.6 ± 8.2%
6 | O=C(c1cc2c(-c3ccc(F)cc3)cccc2s1)N1CCCCC1 [Example 47, (4-(4-fluorophenyl)benzo[b]thiophene-2-yl) (piperidine-1-yl)methanone] | 20 ± 14.1% | – | 59.1 ± 1.6% | 89.1 ± 1.2%
7 | O=C(c1cc2cccc(-c3ccc(F)cc3)c2s1)N1CCOCC1 [Example 65, (7-(4-fluorophenyl)benzo[b]thiophene-2-yl)(morpholino)methanone] | 67% | – | 79.6 ± 5.5% | 77.8 ± 9.6%
8 | O=C(c1nc2cc(Br)ccc2[nH]1)N1CCOCC1 [Example 14, (5-bromo-1H-benzo[d]imidazole-2-yl)(morpholino)methanone] | 62 ± 6.2% | – | 82.1 ± 11.2% | 81.1 ± 15.2%
9 | Cc1ccc2[nH]c(C(=O)N3CCOCC3)nc2c1 [Example 13, (5-methyl-1H-benzo[d]imidazole-2-yl)(morpholino)methanone] | 83.4 ± 16.1% | – | 69.6 ± 2.0% | 71.2 ± 7.0%
10 | COc1ccc2[nH]c(C(=O)N3CCOCC3)cc2c1 [Example 22, (5-methoxy-1H-indole-2-yl)(morpholino)methanone] | 43.5 ± 10.6% | ≥ 50% | 78.6 ± 13.8% | 69.5 ± 7.4%
11 | COc1ccc2[nH]c(C(=O)N3CCOCC3)nc2c1 [Example 24, (5-methoxy-1H-benzo[d]imidazole-2-yl)(morpholino)methanone] | 52 ± 17.1% | – | 76.4 ± 13.4% | 66.6 ± 9.9%

Second part, led by results:

Row | activity at 100 µM [1] | inhibition at 100 µM [1] | Compound | Death of retinal nerve cell (%) [2] | Death of retinal nerve cell (%) [3]
12 | 82.5 ± 24.7% | – | O=C(c1cc2cccc(Br)c2s1)N1CCOCC1 [Example 29, (7-bromobenzo[b]thiophene-2-yl)(morpholino)methanone] | 51.4 ± 10.9% | 78.4 ± 6.5%
13 | 73 ± 38.2% | – | Nc1ccc2sc(C(=O)N3CCOCC3)cc2c1 [Example 28, (5-aminobenzo[b]thiophene-2-yl)(morpholino)methanone] | 60.0 ± 8.2% | 84.3 ± 1.7%
14 | 69 ± 24.5% | – | O=C(c1nc2ccccc2[nH]1)N1CCOCC1 [Example 23, (1H-benzo[d]imidazole-2-yl)(morpholino)methanone] | 45.6 ± 3.6% | 69.2 ± 4.2%
15 | 81.4 ± 29.3% | – | COc1ccc2oc(C(=O)N3CCOCC3)cc2c1 [Example 26, (5-methoxybenzofuran-2-yl)(morpholino)methanone] | 48.6 ± 6.5% | 75.9 ± 15.1%
16 | 85.6 ± 26.7% | – | O=C(c1cc2ccccc2o1)N1CCOCC1 [Example 15, benzofuran-2-yl(morpholino)methanone] | 42.7 ± 2.0% | 72.6 ± 6.8%
17 | 81 ± 17% | – | Cc1ccc2[nH]c(C(=O)N3CCOCC3)cc2c1 [Example 21, (5-methyl-1H-indole-2-yl)(morpholino)methanone] | 64.7 ± 7.1% | 89.9 ± 19.4%
18 | 88 ± 24.7% | – | O=C(c1cc2cc(Br)ccc2o1)N1CCOCC1 [Example 16, (5-bromobenzofuran-2-yl)(morpholino)methanone] | 19.3 ± 1.4% | 59.4 ± 11.3%
19 | 43% | ≥ 50% | Cn1c(C(=O)N2CCOCC2)cc2ccccc21 [Example 25, (1-methyl-1H-indole-2-yl)(morpholino)methanone] | 37.0 ± 1.2% | 64.8 ± 11.2%
20 | 86 ± 17% | – | Cc1ccc2cc(C(=O)N3CCOCC3)oc2c1 [Example 27, (6-methylbenzofuran-2-yl)(morpholino)methanone] | 53.7 ± 9.1% | 86.1 ± 1.3%
